In data set [1] the target is human Z A1AT (Homo sapiens, UniProt P01009, E366K). The data set can be described thus: Trypsin complex formation by human Z A1AT purified from plasma of treated huZ mice (Western blot). It counts as biochemical, huZ mouse. Also noted: from tissue; host or cells: huZ (PiZZ) transgenic mice, line Z11.03, C57Bl/6 background; made in liver, measured in plasma. To be noted: Z A1AT purified from plasma of huZ mice treated at 200 mg/kg twice a day by oral gavage for 10 days. The procedure: The aim of the experiment was to purify human Z A1AT from three HuZ mice which had been treated with compound N,N-dimethyl-4-((6-oxopyrimidin-1(6H)-yl)methyl)benzamide (22.1e, 24.1a, 24.1b), then test the activity of the A1AT by reaction with increasing amounts of trypsin. Reaction of A1AT with the trypsin was analysed by western blot, probing with an anti-human A1AT antibody. A control plasma from a wild type mouse treated with the same compound (15.5b) was also included in the study.
Chain of human Z A1AT (P01009 25-418 E366K): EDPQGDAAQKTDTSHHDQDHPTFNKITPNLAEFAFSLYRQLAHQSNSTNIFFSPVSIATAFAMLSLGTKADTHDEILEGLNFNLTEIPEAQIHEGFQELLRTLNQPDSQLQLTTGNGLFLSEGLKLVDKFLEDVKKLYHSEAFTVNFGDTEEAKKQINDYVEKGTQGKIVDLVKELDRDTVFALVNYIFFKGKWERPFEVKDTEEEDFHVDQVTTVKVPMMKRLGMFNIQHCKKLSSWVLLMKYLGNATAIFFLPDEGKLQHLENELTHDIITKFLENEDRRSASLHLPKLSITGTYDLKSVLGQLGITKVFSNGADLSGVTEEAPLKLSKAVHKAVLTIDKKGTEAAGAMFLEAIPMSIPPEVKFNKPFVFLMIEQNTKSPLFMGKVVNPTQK
Mice were treated with N,N-dimethyl-4-((6-oxopyrimidin-[…]-yl)methyl)benzamide at 200 mg/kg twice a day by oral gavage for 10 consecutive days. Mice had access to food (standard mouse chow, SAFE diets) and water ad libitum. On study day 10, each mouse was dosed 3.5-4.5 hours prior to terminal procedures. […]
100 μl of mouse plasma was diluted to 300 μl with 20 mM Tris, 150 mM NaCl, 5 mM EDTA, pH 7.4 (reaction and wash buffer) prior to purification. […] Residual A1AT in the plasma and plasma supernatant was quantified using a human serpinA1 ELISA (Human Serpin A1/α1-antitrypsin duo set ELISA, R& D Systems, DY1268) to confirm depletion of human A1AT. The concentration of the eluted fractions were also measured. The amount of eluted A1AT was determined by measuring by A280 using an extinction coefficient of 0.45. […]
On the technique in general: In western blotting, separated proteins are transferred to a membrane and probed.

The nature of data set [2]: Pharmacokinetics in rats. Conditions: rat, whole blood, Sprague Dawley rats. It counts as in vivo. As to the method: Compounds were administered to Sprague Dawley rats intravenously (2 mg/kg) or orally (10 mg/kg) by gavage. Whole blood diluted with water was prepared from these dosed animals over a time course up to 24 hours post dose to allow blood concentrations of drug to be measured by UPLC-MS/MS.

With `CN(C)C(=O)c1ccc(Cn2cnccc2=O)cc1` [N,N-dimethyl-4-((6-oxopyrimidin-1(6H)-yl)methyl)benzamide], the “activity of eluted human Z A1AT (complex formation with trypsin)” value in data set [1] was “native and fully active”. For the same compound, in data set [2] (iv 2 mg/kg or oral 10 mg/kg, read-out: Half-life in blood (t1/2)), the half-life was determined as 55 min. Also, the clearance in data set [2] (iv 2 mg/kg or oral 10 mg/kg, read-out: Observed clearance) came out at 10.6 mL/min/kg. In data set [2] (iv 2 mg/kg or oral 10 mg/kg, read-out: Volume of distribution (Vz)), the Vd is 0.84 L/kg. Further, in data set [2] (oral 10 mg/kg vs iv 2 mg/kg, read-out: Oral Bioavailability (F)), the bioavailability was determined as 104%. In data set [2] (oral 10 mg/kg, blood), this compound registered a Cmax of 5330 ng/mL. Further, in data set [2] (oral 10 mg/kg, blood, read-out: Oral AUCINF), the AUC(0-inf) worked out at 16500 ng·h/mL.

Usually Cmax stands for the highest concentration seen after dosing.
